# Tested on: SW480
# Experiment: drug sensitivity score (DSS, integrated dose-response area); higher = more sensitive (stronger viability reduction); extreme values may be limits of the assay
# Procedure, shortened: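 SW480 cells stably carrying doxycycline-inducible control or SND1-targeting shRNA were induced with 0.1 µg/mL doxycycline for 7 days. They were then plated at 1000 cells per well in 384-well plates holding 525 commercially available small-molecule inhibitors at five concentrations. Viability was read with CellTiter-Glo after 72 h. The drug sensitivity score integrates the area under a fitted non-linear dose–response model.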
# [1] = shRNA: SND1 shRNA1 (SND1 silenced)
# [2] = shRNA: SND1 shRNA2 (SND1 silenced)
# [3] = shRNA: control shRNA (non-targeting)
SMILES,drug sensitivity score [1] [DSS],drug sensitivity score [2] [DSS],drug sensitivity score [3] [DSS]
S=C(NCc1ccc2c(c1)OCO2)N1CCN(c2ncnc3c2oc2ccccc23)CC1 [Amuvatinib],3.9,6.4,6.7
CCOC(=O)CCNc1cc(N2CCc3ccccc3CC2)nc(-c2ccccn2)n1 [GSK-J4],14,14.7,12.3
CCc1cnn2c(NCc3ccc[n+]([O-])c3)cc(N3CCCC[C@H]3CCO)nc12 [Dinaciclib],18.1,15.8,20.1
N[C@@H]1CCCN(c2c(/C=C3\SC(=O)NC3=O)cccc2-c2ccccc2)C1 [AZD1208],0,–,0
O=C(/C=C/c1cccnc1)NCCCCC1CCN(C(=O)c2ccccc2)CC1 [Daporinad],28.1,–,27.8
COc1cc(C(=O)NC2CCN(C)CC2)c(F)cc1Nc1ncc2c(n1)N(C1CCCC1)CC(F)(F)C(=O)N2C [TAK-960],0.1,5.4,3.6
O=C(CCCCCCC(=O)Nc1ccccc1)NO [Vorinostat],7.8,8,9.3
FC(F)c1nc2ccccc2n1-c1nc(N2CCOCC2)nc(N2CCOCC2)n1 [ZSTK474],7.3,5.1,4
Cc1cc2c(F)c(Oc3ncnn4cc(OC[C@@H](C)O)c(C)c34)ccc2[nH]1 [Brivanib],0,0,0
NC(=O)N1CCC(CC(=O)N2CCC([C@H]3c4ncc(Br)cc4CCc4cc(Cl)cc(Br)c43)CC2)CC1 [Lonafarnib],6.9,8.8,4.9
O=C(Nc1ccc(-c2ccnc(Nc3ccc(N4CCOCC4)cc3)n2)cc1)C1CCCN1 (centres undefined) [XL019],0.1,–,1.7
COCC1(CO)C(=O)C2CCN1CC2 (centres undefined) [APR-246],0,1.1,2
Cc1cc(Nc2ncc(Cl)c(Nc3ccccc3S(=O)(=O)C(C)C)n2)c(OC(C)C)cc1C1CCNCC1 [Ceritinib],2.1,0.8,0.2
Clc1ccccc1C(c1ccccc1)(c1ccccc1)n1cccn1 [TRAM-34],0,0,1.3
CNCc1ccc(-c2[nH]c3cc(F)cc4c3c2CCNC4=O)cc1 [Rucaparib],0.3,3,4.6
CN1CCN(c2cc(C(=O)Nc3ccc4c(c3)-c3c(c(C(N)=O)nn3-c3ccc(F)cc3)CC4)c(Cl)cn2)CC1 [PHA 408],5.3,–,5.2
CCn1nnc2c(N3CCOCC3)nc(-c3ccc(NC(=O)Nc4ccc(C(=O)N5CCN(C)CC5)cc4)cc3)nc21 [PKI-402],6,6.6,8.2
CN(C)c1cc2c(cc1Sc1nc3c(N)nccc3n1CCNCC(C)(C)C)OCO2 [CUDC-305],13.3,13.1,14.9
COc1cc2c(Oc3ccc(NC(=O)C4(C(=O)Nc5ccc(F)cc5)CC4)cc3F)ccnc2cc1OCCCN1CCOCC1 [Foretinib],4.1,4.2,5
CNC(=O)CN1CCC(Oc2cc3c(Nc4cccc(Cl)c4F)ncnc3cc2OC)CC1 [Sapitinib],0.1,5,0
CNC(=O)c1ccccc1Sc1ccc2c(/C=C/c3ccccn3)n[nH]c2c1 [Axitinib],6,2.8,5.4
O=P1(N(CCCl)CCCl)NCCCO1 (centres undefined) [Cyclophosphamide],0,0,0
CC(=O)OC[C@H]1O[C@@H]([S-])[C@H](OC(C)=O)[C@@H](OC(C)=O)[C@@H]1OC(C)=O.CCP(CC)CC.[Au+] [Auranofin],6.2,8.8,8.7
CNC(=O)c1cc(Oc2ccc(NC(=O)Nc3ccc(Cl)c(C(F)(F)F)c3)c(F)c2)ccn1 [Regorafenib],7.8,7.9,5.1
C[C@@H]1C=C2C(=O)O[C@@H]3CC[C@H](C1)[C@]23O [Galiellalactone],3.8,4.2,3.4
CC(C)Oc1ccc(C(=O)N[C@H](CNC(=O)CN(C)C)Cc2ccc(-c3cn4cccc([C@H](C)O)c4n3)cc2)cc1Cl,13.1,12,13.3

SMILES,drug sensitivity score [1] [DSS],drug sensitivity score [2] [DSS],drug sensitivity score [3] [DSS]
CC(C)n1cnc2c(NCCc3ccc(O)cc3)nc(-c3csc4ccccc34)nc21 [StemRegenin 1],1.3,1,0.8
O=C(O)CCCc1ccc(N(CCCl)CCCl)cc1 [Chlorambucil],0,0,0
CNC(=O)c1cccc(-c2ccc3c(N4CCOC[C@@H]4C)nc(N4CCOC[C@@H]4C)nc3n2)c1 [AZD2014],13.2,12.6,9.6
CC(=O)c1c(C)c2cnc(Nc3ccc(N4CCNCC4)cn3)nc2n(C2CCCC2)c1=O [Palbociclib],10.6,10.4,6.6
CN1CCN(c2nc(C3=C(c4c[nH]c5ccccc45)C(=O)NC3=O)c3ccccc3n2)CC1 [Sotrastaurin],4.5,0.5,4.9
C[C@@H]1C[C@H]2O[C@@H]2/C=C\C=C\C(=O)Cc2c(Cl)c(O)cc(O)c2C(=O)O1 [Radicicol],13.4,12.1,12.3
COc1cc(CCc2cc(NC(=O)c3ccc(N4CC(C)NC(C)C4)cc3)n[nH]2)cc(OC)c1 (centres undefined) [AZD4547],2.9,0,1.6
COc1ccc(Cn2ccc3ccc(C(=O)NO)cc32)cc1,3.3,5.3,1.8
COc1cc(N2CCC(N3CCN(C)CC3)CC2)ccc1Nc1ncnc(Nc2ccccc2S(=O)(=O)C(C)C)n1 [ASP3026],4.6,5,8
Cc1cn(-c2cc(NC(=O)c3ccc(C)c(Nc4nccc(-c5cccnc5)n4)c3)cc(C(F)(F)F)c2)cn1 [Nilotinib],2.6,3.8,1.6
Cc1ccc(Nc2nccc(N(C)c3ccc4c(C)n(C)nc4c3)n2)cc1S(N)(=O)=O [Pazopanib],0.5,7.1,1.8
C=CCn1c(=O)c2cnc(Nc3ccc(N4CCN(C)CC4)cc3)nc2n1-c1cccc(C(C)(C)O)n1 [MK1775],13.5,11.5,11.9
O=c1[nH]c(C2CCCN2)nc2c1oc1ccc(Cl)cc12 (centres undefined),1.5,0,8.1
CC[C@H](C)C(=O)O[C@H]1C[C@@H](C)C=C2C=C[C@H](C)[C@H](CC[C@@H]3C[C@@H](O)CC(=O)O3)[C@H]21 [Lovastatin],0,–,0
O=C(Nc1cccc(C(F)(F)F)c1)Nc1cc(S(=O)(=O)NC2CC2)ccc1-c1ccsc1 [AGI-6780],0.2,–,0.5
CCCCCCCCc1ccc(CCC(N)(CO)CO)cc1 [Fingolimod],8.5,8.9,6.6
CC(C)C(=O)Nc1ccc([N+](=O)[O-])c(C(F)(F)F)c1 [Flutamide],0,0,0
COC[C@H](NC(=O)c1cnc(C)s1)C(=O)N[C@@H](COC)C(=O)N[C@@H](Cc1ccccc1)C(=O)[C@@]1(C)CO1 [Oprozomib],17.7,16.5,19
O=C(/C=C\n1cnc(-c2cc(C(F)(F)F)cc(C(F)(F)F)c2)n1)NNc1ccccn1 [Verdinexor],8,4.5,8.6
O=NN(CCCl)C(=O)NC1CCCCC1 [Lomustine],0,0,0
C[C@@]1(C(=O)Nc2ccc(F)nc2)CCCN1c1nc(Nc2cc(C3CC3)n[nH]2)c2cccn2n1,8.1,4.6,2.4
C=CC(=O)N1CCC(Oc2cc3c(Nc4ccc(Cl)c(Cl)c4F)ncnc3cc2OC)CC1 [Poziotinib],0.6,4.1,0.2
COc1ccc(Cl)c(Nc2nc3ccccc3nc2NS(=O)(=O)c2cccc(NC(=O)C(C)(C)N)c2)c1 [Pilaralisib],0.8,0.7,0.8
CC1(C)CNc2cc(NC(=O)c3cccnc3NCc3ccncc3)ccc21 [Motesanib],0,0.4,0
CNC(=O)c1ccc(N2C(=S)N(c3ccc(C#N)c(C(F)(F)F)c3)C(=O)C2(C)C)cc1F [Enzalutamide],0,1.3,0
CCc1nc(-c2cccc(C)c2)c(-c2ccnc(NC(=O)c3ccccc3)c2)s1 [TAK-715],4.7,–,5.1

# From the supplement of paper PMC9265050, “Inhibition of RNA Binding in SND1 Increases the Levels of miR-1-3p and Sensitizes Cancer Cells to Navitoclax” (Cancers, 2022)
